Converted amounts (≈) assume the structure as drawn. The source made the active and inactive calls. No cut-off for these calls is given here.
Legend:
Staphylococcus aureus [1] = assay: Antibiofilm activity against methicillin-susceptible Staphylococcus aureus ATCC 29213 assessed as inhibition of biofilm formation incubated for 24 hrs by crystal violet staining based analysis; assay type: functional; settings: dose 1.56-100 µg/ml
Staphylococcus aureus [2] = assay: Antibiofilm activity against methicillin-resistant Staphylococcus aureus ATCC 33591 assessed as inhibition of biofilm formation incubated for 24 hrs by crystal violet staining based analysis; assay type: functional; settings: dose 1.56-100 µg/ml
Staphylococcus aureus [3] = assay: Antibiofilm activity against methicillin-susceptible Staphylococcus aureus ATCC 29213 assessed as biofilm eradication incubated for 24 hrs by crystal violet staining based analysis; assay type: functional
Staphylococcus aureus [4] = assay: Antibiofilm activity against methicillin-resistant Staphylococcus aureus ATCC 33591 assessed as biofilm eradication incubated for 24 hrs by crystal violet staining based analysis; assay type: functional
[5] = Cytotoxicity against human A549 cells assessed as inhibition of cell growth measured after 48 hrs by MTT assay; assay type: toxicity, cell-based
Staphylococcus aureus [6] = assay: Antibacterial activity against methicillin-susceptible Staphylococcus aureus ATCC 29213 assessed as bacterial growth inhibition incubated for 24 hrs by CLSI based microbroth dilution method; assay type: functional
Staphylococcus aureus [7] = assay: Antibiofilm activity against methicillin-susceptible Staphylococcus aureus ATCC 29213 assessed as disruption of biofilm incubated for 24 hrs by crystal violet staining based inverted microscopic analysis; assay type: functional, organism-based; settings: dose 1.56-12.5 µg/ml
Staphylococcus aureus [8] = assay: Antibacterial activity against methicillin-resistant Staphylococcus aureus ATCC ATCC 33591 assessed as planktonic growth inhibition at 25 to 50 ug/mL incubated for 24 hrs; assay type: functional, organism-based; settings: dose 25-50 µg/ml
Staphylococcus aureus [9] = assay: Antibiofilm activity against methicillin-resistant Staphylococcus aureus ATCC 33591 assessed as disruption of biofilm incubated for 24 hrs by crystal violet staining based inverted microscopic analysis; assay type: functional, organism-based; settings: dose 1.56-12.5 µg/ml
Staphylococcus aureus [10] = assay: Antibacterial activity against methicillin-susceptible Staphylococcus aureus ATCC 29213 assessed as planktonic growth inhibition at 25 to 50 ug/mL incubated for 24 hrs; assay type: functional, organism-based; settings: dose 25-50 µg/ml
Staphylococcus aureus [11] = assay: Antibacterial activity against methicillin-resistant Staphylococcus aureus ATCC 33591 assessed as bacterial growth inhibition incubated for 24 hrs by CLSI based microbroth dilution method; assay type: functional
Staphylococcus aureus [12] = assay: Antibacterial activity against methicillin-resistant Staphylococcus aureus ATCC 33591 assessed as MBC to MIC ratio; assay type: functional

SMILES | MBIC50 (Staphylococcus aureus [1]) | MBIC50 (Staphylococcus aureus [2]) | MBEC50 (Staphylococcus aureus [3]) | further results
CC1(C)C(c2cnn(-c3ccc(C(=O)NCc4ccc(F)cc4)cc3)c2)=Nc2ccc3ccccc3c21 | >100 µg/mL | – | – | –
CC1(C)C(c2cnn(-c3ccc(C(=O)Nc4ccc(F)cc4)cc3)c2)=Nc2ccccc21 | >100 µg/mL | – | – | –
CC1(C)C(c2cnn(-c3ccc(C(=O)NCCc4ccccc4)cc3)c2)=Nc2ccc3ccccc3c21 | >100 µg/mL | – | – | –
CCCCNC(=O)c1ccc(-n2cc(C3=Nc4ccccc4C3(C)C)cn2)cc1 | >100 µg/mL | – | – | –
COc1ccc2c(c1)C(C)(C)C(c1cnn(-c3ccc(C(=O)O)cc3)c1)=N2 | 12.5 µg/mL | 100 µg/mL | >100 µg/mL | –
COc1ccc2c(c1)C(C)(C)C(c1cnc3c4c(OC)cccc4nn3c1)=N2 | >100 µg/mL | 25 µg/mL | >100 µg/mL | –
CC1(C)C(c2cnc3c4ccc(Br)cc4nn3c2)=Nc2ccc3ccccc3c21 | >100 µg/mL | – | >100 µg/mL | –
Cc1ccc(CNC(=O)c2ccc(-n3cc(C4=Nc5ccccc5C4(C)C)cn3)cc2)cc1 | >100 µg/mL | – | – | –
CC1(C)C(c2cnn(-c3ccc(C(=O)NCc4ccc(F)cc4)cc3)c2)=Nc2ccccc21 | >100 µg/mL | – | – | –
CC1(C)C(c2cnn(-c3ccc(C(=O)O)cc3)c2)=Nc2ccccc21 | 6.25 µg/mL | 50 µg/mL | >100 µg/mL | –
CC1(C)C(c2cnn(-c3ccc(C(=O)Nc4ccncc4)cc3)c2)=Nc2ccccc21 | >100 µg/mL | – | – | –
CC1(C)C(c2cnn(-c3ccccc3)c2)=Nc2ccc(C(=O)O)cc21 | 12.5 µg/mL | <=1.56 ug ml-1 | >100 µg/mL | MBEC50 (Staphylococcus aureus [4]): 25 µg/mL; IC50 at 48 h [5]: > 100 µg/mL
CC1(C)C(c2cnn(-c3ccc(C(=O)NCc4cccnc4)cc3)c2)=Nc2ccccc21 | >100 µg/mL | – | – | –
CC1(C)C(c2cnn(-c3ccc(C(=O)O)cc3)c2)=Nc2ccc(Cl)cc21 | 6.25 µg/mL | – | 12.5 µg/mL | MBEC50 (Staphylococcus aureus [4]): 50 µg/mL; IC50 at 48 h [5]: > 100 µg/mL
COc1ccc2c(c1)C(C)(C)C(c1cnc3c4ccc(Br)cc4nn3c1)=N2 | >100 µg/mL | – | >100 µg/mL | –
CC1(C)C(c2cnn(-c3ccc(C(=O)Nc4ccc(Cl)cc4)cc3)c2)=Nc2ccc3ccccc3c21 | >100 µg/mL | – | – | –
COc1cccc2nn3cc(C4=Nc5ccc6ccccc6c5C4(C)C)cnc3c12 | >100 µg/mL | – | >100 µg/mL | MBEC50 (Staphylococcus aureus [4]): 100 µg/mL
CCOC(=O)c1ccc2c(c1)C(C)(C)C(c1cnc3c4c(OC)cccc4nn3c1)=N2 | >100 µg/mL | 12.5 µg/mL | >100 µg/mL | –
CC1(C)C(c2cnn(-c3ccc(C(=O)Nc4ccccc4)cc3)c2)=Nc2ccccc21 | >100 µg/mL | – | – | –
CC1(C)C(c2cnc3c4ccccc4nn3c2)=Nc2ccccc21 | >100 µg/mL | 100 µg/mL | 100 µg/mL | MBEC50 (Staphylococcus aureus [4]): >100 µg/mL
COc1cccc2nn3cc(C4=Nc5ccccc5C4(C)C)cnc3c12 | 50 µg/mL | >100 µg/mL | >100 µg/mL | –
CC1(C)C(c2cnc3c4ccc(C(F)(F)F)cc4nn3c2)=Nc2c1ccc1ccccc21 | >100 µg/mL | 100 µg/mL | >100 µg/mL | –
Cc1ccc(NC(=O)c2ccc(-n3cc(C4=Nc5ccccc5C4(C)C)cn3)cc2)cc1 | >100 µg/mL | – | – | –
CC1(C)C(c2cnc3c4ccc(C(F)(F)F)cc4nn3c2)=Nc2ccccc21 | 100 µg/mL | 12.5 µg/mL | >100 µg/mL | –

SMILES | MBIC50 (Staphylococcus aureus [1]) | MBIC50 (Staphylococcus aureus [2]) | MBEC50 (Staphylococcus aureus [3]) | further results
N=C(NCCCCCCNC(=N)NC(=N)Nc1ccc(Cl)cc1)NC(=N)Nc1ccc(Cl)cc1 [CHLORHEXIDINE] | 3.13 µg/mL | <=1.56 ug ml-1 | 12.5 µg/mL | MBEC50 (Staphylococcus aureus [4]): 3.13 µg/mL
COc1cccc2nn3cc(C4=Nc5c(ccc6ccccc56)C4(C)C)cnc3c12 | 12.5 µg/mL | – | >100 µg/mL | –
CN(C)c1ccccc1NC(=O)c1ccc(-n2cc(C3=Nc4ccccc4C3(C)C)cn2)cc1 | >100 µg/mL | – | – | –
CC1(C)C(c2cnc3c4ccc(Br)cc4nn3c2)=Nc2c1ccc1ccccc21 | >100 µg/mL | 50 µg/mL | >100 µg/mL | –
CC1(C)C(c2cnn(-c3ccc(C(=O)Nc4ccc(F)cc4)cc3)c2)=Nc2ccc3ccccc3c21 | >100 µg/mL | – | – | –
CC1(C)C(c2cnc3c4ccc(C(F)(F)F)cc4nn3c2)=Nc2ccc3ccccc3c21 | 50 µg/mL | – | >100 µg/mL | –
Oc1cc(Cl)ccc1Oc1ccc(Cl)cc1Cl [TRICLOSAN] | <=1.56 ug ml-1 | <=1.56 ug ml-1 | 3.13 µg/mL | MBEC50 (Staphylococcus aureus [4]): 6.25 µg/mL
CCOC(=O)c1ccc2c(c1)C(C)(C)C(c1cnc3c4ccccc4nn3c1)=N2 | >100 µg/mL | 100 µg/mL | >100 µg/mL | –
CC1(C)C(c2cnn(-c3ccc(C(=O)O)cc3)c2)=Nc2ccc3ccccc3c21 | <=1.56 ug ml-1 | 3.13 µg/mL | 12.5 µg/mL | inhibition (Staphylococcus aureus [1]): Dose-Dependent Effect; MIC (Staphylococcus aureus [6]): 25 µg/mL (≈ 65.5 µM); MBEC50 (Staphylococcus aureus [4]): 6.25 µg/mL; Activity (Staphylococcus aureus [7]): Dose-Dependent Effect; inhibition (Staphylococcus aureus [8]): Active; Activity (Staphylococcus aureus [9]): Dose-Dependent Effect; inhibition (Staphylococcus aureus [10]): Active; MIC (Staphylococcus aureus [11]): 25 µg/mL (≈ 65.5 µM); IC50 at 48 h [5]: > 100 µg/mL; Ratio (Staphylococcus aureus [12]): >4; inhibition (Staphylococcus aureus [2]): Dose-Dependent Effect
CC1(C)C(c2cnn(-c3ccc(C(=O)NC4CCCCC4)cc3)c2)=Nc2ccccc21 | >100 µg/mL | – | – | –
CCOC(=O)c1ccc2c(c1)C(C)(C)C(c1cnc3c4ccc(Br)cc4nn3c1)=N2 | >100 µg/mL | – | >100 µg/mL | –
CC1(C)C(c2cnc3c4ccccc4nn3c2)=Nc2c1ccc1ccccc21 | 25 µg/mL | 6.25 µg/mL | >100 µg/mL | –
COc1ccc2c(c1)C(C)(C)C(c1cnc3c4ccccc4nn3c1)=N2 | >100 µg/mL | 50 µg/mL | >100 µg/mL | –
CC1(C)C(c2cnc3c4ccccc4nn3c2)=Nc2ccc3ccccc3c21 | >100 µg/mL | 50 µg/mL | >100 µg/mL | –
CC1(C)C(c2cnn(-c3ccc(C(=O)NCc4ccccc4)cc3)c2)=Nc2ccccc21 | >100 µg/mL | – | – | –
CC1(C)C(c2cnn(-c3ccc(C(=O)Nc4ccc(Cl)cc4)cc3)c2)=Nc2ccccc21 | >100 µg/mL | – | – | –
CC1(C)C(c2cnn(-c3ccc(C(=O)Nc4ccncc4)cc3)c2)=Nc2ccc3ccccc3c21 | >100 µg/mL | – | – | –
COc1ccc2c(c1)C(C)(C)C(c1cnc3c4ccc(C(F)(F)F)cc4nn3c1)=N2 | 100 µg/mL | – | >100 µg/mL | MBEC50 (Staphylococcus aureus [4]): 100 µg/mL
Cc1ccccc1NC(=O)c1ccc(-n2cc(C3=Nc4ccccc4C3(C)C)cn2)cc1 | >100 µg/mL | – | – | –
CCOC(=O)c1ccc2c(c1)C(C)(C)C(c1cnc3c4ccc(C(F)(F)F)cc4nn3c1)=N2 | 100 µg/mL | – | >100 µg/mL | MBEC50 (Staphylococcus aureus [4]): 100 µg/mL
CC1(C)C(c2cnc3c4ccc(Br)cc4nn3c2)=Nc2ccccc21 | >100 µg/mL | 100 µg/mL | >100 µg/mL | –
CC1(C)C(c2cnn(-c3ccc(C(=O)NCCc4ccccc4)cc3)c2)=Nc2ccccc21 | >100 µg/mL | – | – | –
COc1ccc(NC(=O)c2ccc(-n3cc(C4=Nc5ccccc5C4(C)C)cn3)cc2)cc1 | >100 µg/mL | – | – | –

Reference: ChEMBL document CHEMBL5390226, “Synthesis and Staphylococcus aureus biofilm inhibitory activity of indolenine-substituted pyrazole and pyrimido[1,2-b]indazole derivatives” (Bioorg Med Chem, 2023)
